PMC13266999, “Designing Antibiotics with Inherent Resistance to Efflux as a Strategy to Revive Discovery against Multidrug-Resistant Pathogens” (Journal of Medicinal Chemistry, 2026)
In brackets after ≈: the same amount, converted by molar mass. Several values for one entry are separate records, joined by “and”; a condition that tells them apart may be missing. Identical values can stand only once. Like-named read-outs stand apart in the source and are kept apart here.

Assays:
[1] = tested on: S. aureus SA-1199 WT and SA-1199B; assay: Accumulation assay; type: cell-based; conditions: SA-1199B compared to SA-1199
Protocol: Minor adjustments were made to the protocol previously described by Geddes and Hergenrother. After centrifugation in oil to remove excess compound, the pellets were dissolved in 200 μL of ultrapure sterile water and subjected to five freeze–thaw cycles. Each cycle consisted of 1 min in a dry ice and ethanol bath, followed by vortexing and 3 min in a heat block at 65 °C. Miles Misra viable counts were used to determine the number of colony-forming units (CFUs) for each replicate. These counts were performed for the 0.55 OD inoculum, postcompound incubation, solvent-only control, and lysates.
A 20 μL sample was injected into an Onyx monolithic C18 column and run using a gradient method. The mobile phase began with 10% acetonitrile and 90% water, with the acetonitrile content increased to 90% over 7 min, maintained for 2 min, and then returned to 10%. The area under the curve was automatically calculated using Agilent ChemStation software to determine the level of accumulation within the bacterial cells. Finally, the data were analyzed using GraphPad Prism 10.4.1. Unpaired t test was conducted to evaluate the statistical significance of the level of efflux in the efflux mutant S. aureus 1199B strain compared to the wild-type S. aureus 1199 strain.

[2] = tested on: E. faecium; assay: Mutation frequency and agar MIC; type: cell-based; conditions: NCTC 12204
[3] = tested on: K. pneumoniae; assay: Mutation frequency and agar MIC; type: cell-based; conditions: M6
[4] = Murine thigh infection model; conditions: oral 50 mg/kg at 2, 8, and 14 h postinfection, at 26 h
[5] = tested on: S. pyogenes; assay: MIC (microbroth dilution); type: cell-based, Streptococcus pyogenes; conditions: for MIC: Streptococcus pyogenes
Protocol: (§1) All bacteria were maintained on tryptic soy agar (TSA), except Streptococcus spp., which were maintained on Columbia agar plates containing 5% horse blood. All bacterial assays were carried out in tryptic soy broth (TSB), except for Streptococcus spp. which were grown in cation-adjusted Mueller Hinton broth containing 2.5% lysed horse blood. Bacteria were grown to stationary phase in liquid culture overnight, with shaking at 200 rpm, before being back diluted to the relevant starting concentration for each assay below. MICs were measured by the microbroth dilution method. […] Absorbance at OD600 was read on a CLARIOstar spectrophotometer (BMG Labtech) and the MIC was defined as the minimum concentration of compound where no visible growth was detected. The compounds were prepared as a DMSO stock and equivalent concentrations of DMSO had no effect on bacterial growth. MICs were also performed in the presence of the outer membrane permeator, polymyxin b nonapeptide (PMBN) following the same MIC method but with the following variation. The 2-fold dilution series of compound was prepared as above, then 50 μL of PMBN at a final concentration of 30 μg/mL was added to relevant wells, while 50 μL/well of blank media was added to the remaining wells. Bacteria were then added at 50 μL/well for a starting concentration as above. Thirty μg/mL of PMBN had no effect on bacterial growth. The MICs were read and defined as above. All animal procedures were performed by the contract research organization Pharmacology Discovery Services Taiwan in accordance with the Guide for the Care and Use of Laboratory Animals. The procedures were approved by the Institutional Ethics Committee of Pharmacology Discovery Services Taiwan, Ltd. (approval no. AB127662), in compliance with animal welfare legislation in Taiwan.

[6] = tested on: S. agalactiae; assay: MIC (microbroth dilution); type: cell-based, Streptococcus agalactiae; conditions: for MIC: Streptococcus agalactiae
Protocol: as §1

[7] = Plasma protein binding (RED); type: in vitro ADME; conditions: pH 7.4
Protocol: Plasma protein binding was measured using a Rapid Equilibrium Dialysis (RED) assay. Test compounds and control compounds were added to plasma at 10 μM and dialyzed against phosphate-buffered saline (PBS, pH 7.4) for 4 h at 37 °C. […] The percentage of drug bound to plasma proteins was calculated by comparing the analyte response in the plasma compartment with that in the buffer compartment.

[8] = tested on: KV channel; assay: SafetyScreen44; conditions: antagonist radioligand, specific binding, 1.0E-05 M
Protocol: (§2) Off-target pharmacology was evaluated using the Eurofins SafetyScreen44 in vitro panel. […] Binding assays were performed using radioligand displacement, and enzyme or uptake assays measured inhibition of control activity using validated detection methods (scintillation counting, fluorimetry or photometry). Responses were expressed as percent inhibition of control binding or activity. Based on Eurofins interpretation guidelines, effects ≥50% were considered significant, effects between 25% and 50% weak to moderate, and effects <25% were not considered biologically relevant.

[9] = tested on: SafetyScreen44 targets; assay: SafetyScreen44 panel, remaining targets; type: binding, human; conditions: 10 μM
Protocol: as §2

[10] = in vivo; conditions: male, mouse, po
[11] = target: CYP1A (Homo sapiens, UniProt P05177); assay: CYP inhibition; conditions: human liver microsomes, probe phenacetin, HLM, phenacetin substrate
Protocol: (§3) Cytochrome P450 inhibition was assessed in vitro using human recombinant enzymes in microsomal preparations. […] Enzyme activity was quantified by monitoring formation of substrate-specific metabolites, and percent inhibition was calculated relative to vehicle control.

[12] = target: CYP2C19 (Homo sapiens, UniProt P33261); assay: CYP inhibition; conditions: HLM, omeprazole substrate; for CYP2C19 inhibition: 10 μM
Protocol: as §3

[13] = target: CYP2C9 (Homo sapiens, UniProt P11712); assay: CYP inhibition; conditions: HLM, diclofenac substrate
Protocol: as §3
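For MTD in this document: male ICR mice given oral doses under a stepwise escalation scheme to find the highest tolerated dose.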

CYP2C19, sequence (P33261 whole entry): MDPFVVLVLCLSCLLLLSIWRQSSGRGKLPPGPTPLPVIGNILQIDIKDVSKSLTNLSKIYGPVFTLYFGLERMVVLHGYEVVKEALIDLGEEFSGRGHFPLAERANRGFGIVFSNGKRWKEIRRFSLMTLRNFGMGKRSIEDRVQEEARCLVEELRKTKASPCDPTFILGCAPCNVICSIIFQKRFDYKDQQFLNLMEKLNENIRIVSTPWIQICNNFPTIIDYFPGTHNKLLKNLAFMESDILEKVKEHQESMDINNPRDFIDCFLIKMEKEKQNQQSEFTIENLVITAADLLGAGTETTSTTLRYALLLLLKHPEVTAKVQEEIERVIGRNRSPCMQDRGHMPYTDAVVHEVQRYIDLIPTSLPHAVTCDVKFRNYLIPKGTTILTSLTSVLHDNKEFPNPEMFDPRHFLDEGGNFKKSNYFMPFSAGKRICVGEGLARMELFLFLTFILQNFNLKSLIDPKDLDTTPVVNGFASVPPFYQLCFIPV
CYP2C9, sequence (P11712 whole entry): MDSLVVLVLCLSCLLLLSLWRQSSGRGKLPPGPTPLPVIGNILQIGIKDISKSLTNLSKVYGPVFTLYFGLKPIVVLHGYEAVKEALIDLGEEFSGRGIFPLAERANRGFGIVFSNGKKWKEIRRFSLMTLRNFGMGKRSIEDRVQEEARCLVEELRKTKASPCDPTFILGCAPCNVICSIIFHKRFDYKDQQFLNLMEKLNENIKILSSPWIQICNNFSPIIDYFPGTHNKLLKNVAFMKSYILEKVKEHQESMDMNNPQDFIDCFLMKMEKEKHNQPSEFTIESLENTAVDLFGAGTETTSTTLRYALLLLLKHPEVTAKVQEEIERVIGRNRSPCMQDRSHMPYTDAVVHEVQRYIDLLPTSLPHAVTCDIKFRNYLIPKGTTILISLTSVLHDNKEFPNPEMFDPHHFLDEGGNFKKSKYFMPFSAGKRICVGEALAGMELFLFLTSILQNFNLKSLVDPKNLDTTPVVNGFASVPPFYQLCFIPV
CYP1A, sequence (P05177 whole entry): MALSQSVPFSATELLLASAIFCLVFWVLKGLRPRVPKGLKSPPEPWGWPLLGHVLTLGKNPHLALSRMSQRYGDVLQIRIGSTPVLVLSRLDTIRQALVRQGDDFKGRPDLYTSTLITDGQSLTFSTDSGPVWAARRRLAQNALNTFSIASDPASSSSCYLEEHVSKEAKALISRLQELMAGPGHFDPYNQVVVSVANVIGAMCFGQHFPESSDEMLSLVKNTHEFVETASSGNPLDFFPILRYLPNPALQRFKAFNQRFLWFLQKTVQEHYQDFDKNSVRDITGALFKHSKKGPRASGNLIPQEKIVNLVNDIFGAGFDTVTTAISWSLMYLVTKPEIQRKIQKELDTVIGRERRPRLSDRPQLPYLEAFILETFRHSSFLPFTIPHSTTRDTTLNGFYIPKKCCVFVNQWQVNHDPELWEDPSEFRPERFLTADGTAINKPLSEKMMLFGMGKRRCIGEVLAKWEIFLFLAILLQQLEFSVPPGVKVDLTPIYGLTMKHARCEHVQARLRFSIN

| SMILES | level of accumulation [1] | Agar MIC [2] | Agar MIC [3] | bacterial counts in thigh [4] | MIC ([5]; 8198, read-out: MIC) | MIC ([5]; 13736, read-out: MIC) | MIC [5]; 13737 | MIC [5]; 13738 | MIC ([5]; 82434, read-out: MIC) | MIC ([5]; 82896, read-out: MIC) | MIC ([5]; 84285, read-out: MIC) | MIC range ([5]; n = 12 isolates) | MIC ([6]; 8017, read-out: MIC) | MIC [6]; 8183 | MIC ([6]; 10069, read-out: MIC) | MIC [6]; 84115 | fraction unbound at 4 h, 10 μM [7] | % Inhibition [8] | inhibition, all other / remaining targets [9] | inhibition at 10 µM [11] | other results |
| --- | --- | --- | --- | --- | --- | --- | --- | --- | --- | --- | --- | --- | --- | --- | --- | --- | --- | --- | --- | --- | --- |
| C[C@H]1COc2c(N3CCN(C)CC3)c(F)cc3c(=O)c(C(=O)O)cn1c23 [Levofloxacin, (S)-9-Fluoro-3-methyl-10-(4-methylpiperazin-1-yl)-7-oxo-2,3-dihydro-7H-[1,4]oxazino[2,3,4-ij]quinoline-6-carboxylic acid, reference compound] | lower in the NorA-overexpressing SA-1199B strain | 1 µg/mL | 0.03 µg/mL | 3.28 log10 CFU/g | – | – | – | – | – | – | – | – | – | – | – | – | – | – | – | – | – |
| C[C@H]1COc2c(N3CC[C@@H](Nc4ncccn4)C3)c(F)cc3c(=O)c(C(=O)O)cn1c23 [Compound 46, (S)-9-Fluoro-3-methyl-7-oxo-10-((R)-3-(pyrimidin-2-ylamino)pyrrolidin-1-yl)-2,3-dihydro-7H-[1,4]oxazino[2,3,4-ij]quinoline-6-carboxylic acid] | no significant change in accumulation | – | 0.5 µg/mL | 3.19 log10 CFU/g | ≤ 0.03 µg/mL | 0.06 µg/mL (≈ 0.141 µM) | 0.125 µg/mL (≈ 0.294 µM) | 0.125 µg/mL (≈ 0.294 µM) | 0.06 µg/mL (≈ 0.141 µM) | 0.06 µg/mL (≈ 0.141 µM) | 0.06 µg/mL (≈ 0.141 µM) | 0.06 to 0.125 µg/mL | 0.5 µg/mL (≈ 1.18 µM) | 0.125 µg/mL (≈ 0.294 µM) | ≤ 0.03 µg/mL | 0.125 to 0.5 µg/mL (≈ 0.294 to 1.18 µM) | 0.42 | -4.644% | < 25% | 9.6% | MIC [5]; 12048: 0.03 to 0.125 µg/mL (≈ 0.0705 to 0.294 µM); MIC [5]; 80661: 0.06 to 0.125 µg/mL (≈ 0.141 to 0.294 µM); MIC [5]; 81017: 0.125 µg/mL (≈ 0.294 µM); MIC [5]; 83581: 0.06 to 0.125 µg/mL (≈ 0.141 to 0.294 µM); MIC [5]; 86519: 0.125 µg/mL (≈ 0.294 µM); MIC [6]; 6175: 0.125 µg/mL (≈ 0.294 µM); MIC [6]; 8181: 0.125 µg/mL (≈ 0.294 µM); MIC [6]; 10182: 0.125 µg/mL (≈ 0.294 µM); MIC ([6]; 11080, read-out: MIC): 0.25 µg/mL (≈ 0.588 µM); MIC [6]; 83190: 0.125 µg/mL (≈ 0.294 µM); MIC [6]; 83740: 0.125 µg/mL (≈ 0.294 µM); MIC range ([6]; n = 10): 0.06 to 0.5 µg/mL; MTD at 72 h ([10]; ICR): ≥ 400 mg/kg; CYP2C19 inhibition [12]: 0.6%; CYP2C9 inhibition ([13]; 10 μM): 12.8%; reduction relative to vehicle ([4]; 50 mg/kg): 5.17 log10 CFU/g and > 4 log10 CFU/g |
| Cc1cc(C)nc(N[C@@H]2CCN(c3c(F)cc4c(=O)c(C(=O)O)cn5c4c3OC[C@@H]5C)C2)n1 [Compound 50, (S)-10-((R)-3-((4,6-Dimethylpyrimidin-2-yl)amino)pyrrolidin-1-yl)-9-fluoro-3-methyl-7-oxo-2,3-dihydro-7H-[1,4]oxazino[2,3,4-ij]quinoline-6-carboxylic acid] | – | 2 µg/mL | – | – | ≤ 0.03 µg/mL | ≤ 0.03 µg/mL | 0.125 µg/mL (≈ 0.276 µM) | 0.125 µg/mL (≈ 0.276 µM) | ≤ 0.03 µg/mL | ≤ 0.03 µg/mL | ≤ 0.03 µg/mL | ≤ 0.03 to 0.125 µg/mL | 0.25 µg/mL (≈ 0.551 µM) | 0.125 µg/mL (≈ 0.276 µM) | ≤ 0.03 µg/mL | 0.125 µg/mL (≈ 0.276 µM) | 0.28 | 3.113% | < 25% | 16% | MIC ([5]; 12048, read-out: MIC): ≤ 0.03 µg/mL; MIC ([5]; 80661, read-out: MIC): ≤ 0.03 µg/mL; MIC ([5]; 81017, read-out: MIC): 0.06 µg/mL (≈ 0.132 µM); MIC ([5]; 83581, read-out: MIC): ≤ 0.03 µg/mL; MIC ([5]; 86519, read-out: MIC): 0.06 µg/mL (≈ 0.132 µM); MIC ([5]; ATCC14289, ATCC 14289): 0.125 µg/mL (≈ 0.276 µM); MIC ([5]; ATCC19615, ATCC 19615): 0.125 µg/mL (≈ 0.276 µM); MIC ([5]; n = 12 isolates, read-out: modal MIC): ≤ 0.03 µg/mL; MIC ([6]; 6175, read-out: MIC): 0.06 µg/mL (≈ 0.132 µM); MIC ([6]; 8181, read-out: MIC): 0.06 µg/mL (≈ 0.132 µM); MIC ([6]; 10182, read-out: MIC): 0.06 µg/mL (≈ 0.132 µM); MIC [6]; 11080: 0.125 µg/mL (≈ 0.276 µM); MIC ([6]; 83190, read-out: MIC): 0.06 µg/mL (≈ 0.132 µM); MIC ([6]; 83740, read-out: MIC): 0.06 µg/mL (≈ 0.132 µM); MIC ([6]; ATCC12386, ATCC 12386): 0.25 µg/mL (≈ 0.551 µM); MIC ([6]; n = 10, read-out: modal MIC): 0.06 µg/mL (≈ 0.132 µM); MTD at 72 h [10]: ≥ 400 mg/kg; CYP2C19 inhibition [12]: < 10%; inhibition at 10 µM ([12]; human, human liver microsomes, probe omeprazole, CYP2C19 inhibition): 9.87%; inhibition at 10 µM ([13]; human, human liver microsomes, probe diclofenac, CYP2C9 inhibition): 16.8% |
